Experiments:
[1] = system: BAX gene transcription in brain of APP/PS1 mice; assay: Real-time RT-PCR of mice brain, BAX; type: in vivo
Protocol: Five months old male APP/PS1 mice, weighing 25–33 g, were purchased from Guangdong Medical Laboratory Animal Center and housed in the Laboratory Animal Center of Sun Yat-sen University (Guangzhou, China) for experimentation. […] The mice were housed in a specific pathogen-free environment with a controlled temperature of 22 ± 1 °C and a 12-h dark/light cycle. The mice were fed with a standard diet, and 30 mice were randomly divided into 6 groups (N = 5). […] Behavioral experiments were then conducted, and tissue specimens were collected for biochemical analysis.
^a -∆∆Ct = -[(Ct value of genes in treated sample - Ct value of genes in control) - (Ct value of β-actin in treated sample - Ct value of β-actin in control)]. ^b F: The relative expression fold.
Following sample homogenization, chloroform was added, and the solution was allowed to have phase separation into an upper aqueous layer (containing RNA), an interphase, and a lower organic layer (containing DNA and proteins). RNA was precipitated from the aqueous phase using isopropanol, while DNA was precipitated from the aqueous-organic interphase using ethanol.
Quantitative real-time polymerase chain reaction (qRT-PCR) was performed using the 2× RealStar SYBR Mixture (GenStar, Cat# A301-10, Guangzhou, China) on a LightCycler 480 II real-time PCR system (Roche, USA). Data were analyzed using the 2^−ΔΔCt method. Actin served as the internal control, and relative mRNA levels were normalized accordingly.

[2] = system: bio-HRAS (DNA, i motif) CGCCCGTGCCCTGCGCCCGCAACCCGA; assay: SPR; details: K+ 100 mM; 20 mM MES, pH 5.5, 25 °C
[3] = system: F-BCL-2(G4) (DNA, G4) AGGGGCGGGCGCGGGAGGAAGGGGGCGGGAGCGGGGCTG; assay: MST; details: K+ 100 mM; 50 mM Tris-HCl, pH 7.4; highest B14 concentration 50 μM
[4] = system: RB (DNA, i motif) GCCGCCCAAAACCCCCCG; assay: thiazole orange displacement; details: K+ 100 mM KCl plus potassium phosphate; BPES buffer, pH 5.5, 25 °C; 1 μM DNA, 1 μM TO; displacement only 1 %
SH-SY5Y cells = assay: MTT cytotoxicity assay, SH-SY5Y; type: cell-based
Protocol: SH-SY5Y cells, HepG2 cells, HK-2 cells and HT-22 cells were seeded on 96-well plates (5.0×10^3 per well) with 100 μL of culture medium, and incubated for 12 h at 37 °C in a humidified atmosphere with 5% CO2, and then exposed to various concentrations of B14. After 48 h of treatment at 37 °C in a humidified atmosphere with 5% CO2, 100 μL of 0.5 mg/mL MTT solution was added to each well, and the mixture was further incubated for 4 h. The cells in each well were then treated with DMSO (200 μL for each well), and the culture medium was siphoned off, and the absorbance was recorded at 570 nm. All drug doses were parallel tested in triplicate, and the cytotoxicity was evaluated based on the percentage of cell survival in a dose-dependent manner regarding the negative control. The final IC50 values were determined by using Graph Pad Prism 9.0.

[5] = system: Aβ deposition in hippocampus of APP/PS1 mice; assay: Immunofluorescence of hippocampal Aβ deposition; type: in vivo; details: B14 10, 20, 40 mg/kg i.p. every other day
Description: (§1) Five months old male APP/PS1 mice, weighing 25–33 g, were purchased from Guangdong Medical Laboratory Animal Center and housed in the Laboratory Animal Center of Sun Yat-sen University (Guangzhou, China) for experimentation. All procedures were approved by the Animal Care and Use Committee of Sun Yat-sen University and complied with legal requirements and national guidelines for the care and maintenance of laboratory animals (Approval No. SYSU-IACUC-2024-002032). The mice were housed in a specific pathogen-free environment with a controlled temperature of 22 ± 1 °C and a 12-h dark/light cycle. The mice were fed with a standard diet, and 30 mice were randomly divided into 6 groups (N = 5). Compound B14 was dissolved in saline and administered at doses of 10, 20, or 40 mg/kg. APP/PS1 male mice were grown until 6 months of age, and then injected intraperitoneally with compound B14 every other day for 60 days. Behavioral experiments were then conducted, and tissue specimens were collected for biochemical analysis.

HRAS promoter i-motif = assay: SPR binding to HRAS promoter i-motif; details: MES buffer pH 5.5
APP/PS1 transgenic mice = assay: TUNEL staining of brain sections; type: in vivo; details: B14 10, 20, 40 mg/kg i.p. every other day
Description: as §1

BCL-2 promoter i-motif = assay: CD melting experiment, BCL-2 i-motif; type: binding; details: BPES buffer pH 5.5; 20 equivalents (20 μM) compound
Protocol: CD-melting experiment was carried out following a published method without significant modification. BCL-2 promoter i-motif and G-quadruplex structures at a concentration of 5 μM were annealed in buffer at 95 °C for 10 min, and then cooled to room temperature. The annealed samples were incubated with B14 for 6 h, and then molar ellipticity at 287 nm for i-motif structure or 260 nm for G-quadruplex structure, where the CD value was the highest in our experiment, was measured over a temperature range of 20–90 °C at a heating rate of 0.5 °C/min. Tm values were determined and calculated through nonlinear regression curve fitting with software GraphPad Prism 9.0. (GraphPad Software Inc., California, USA).
Figure S6. CD melting experiments were performed to examine the effects of B14 and A22 on BCL-2 promoter i-motif and G-quadruplex. (A-H) CD melting experiments were performed for BCL-2 promoter i-motif or G-quadruplex in the absence or presence of B14 (2, 5, 20 equivalents) and A22 (20 equivalents). The oligonucleotide for BCL-2 i-motif was annealed in 1 X BPES buffer at pH 5.5, while the oligonucleotide for BCL-2 G-quadruplex was annealed in 20 mM Tris-HCl buffer with 20 mM NaCl at pH 7.4. The ΔTm values for the effects of B14 and A22 on BCL-2 promoter i-motif were determined to be 11.26 °C and 11.82 °C, respectively. […]

## O=C(CCN1CCOCC1)Nc1ccc2c(c1)c(=O)c1cc(NC(=O)CCN3CCOCC3)ccc1n2-c1ccc2occc2c1 [Compound B14]
[1]; 10 mg/kg
  -∆∆Ct, BAX: -0.16
  F = 2^-∆∆Ct (relative expression fold), BAX: 1.11
[1]; 20 mg/kg
  -∆∆Ct, BAX: 0.08
  F = 2^-∆∆Ct (relative expression fold), BAX: 0.94
[1]; 40 mg/kg
  -∆∆Ct, BAX: 0.21
  F = 2^-∆∆Ct (relative expression fold), BAX: 0.86
[2]
  KD: > 50 µM
[3]
  KD: 59.75 µM
[4]
  binding: no
SH-SY5Y cells
  toxicity to SH-SY5Y cells (viability): no significant toxicity to SH-SY5Y cells
SH-SY5Y cells; Homo sapiens, SH-SY5Y, incubation for 48 h
  IC50: > 100 µM
[5]
  hippocampal Aβ deposition: significantly reduced in a dose-dependent manner
HRAS promoter i-motif
  Kd: > 50 µM
APP/PS1 transgenic mice
  proportion of TUNEL-positive neurons: significantly decreased the proportion of TUNEL-positive neurons
BCL-2 promoter i-motif
  ΔTm (CD melting): 11.26 °C

Reference: PMC11982498 (Redox Biology, 2025)
